This is an account of results in patent US11078450B2, “Material containing solid bleaching agent, and detergent composition” (SHIKOKU CHEMICALS CORPORATION, priority 2016, dated 2021).

The nature of data set [1]: Stability test 1 (storage test), effective chlorine retention rate.
Experimental: In the case where the solid bleaching agent is a chlorine bleaching agent, an effective chlorine content (in terms of Cl2) in the solid bleaching agent-containing material can be calculated by Expression 3 by using an iodine titration method. That is, iodine which is liberated by the reaction of active chlorine and potassium iodide is titrated with sodium thiosulfate solution, and the effective chlorine content is calculated by the following Expression 3.
(§1) A stability of the solid bleaching agent-containing material having a coating layer thus obtained can be evaluated on the basis of how much an effective chlorine retention rate or effective oxygen retention rate after a storage test under certain conditions is improved before and after coating. The effective chlorine retention rate (%) is defined by the following Expression 9. […] Similarly, in the case where the solid bleaching agent is an oxygen bleaching agent, the stability of the solid bleaching agent is defined by the effective oxygen retention rate (%). […] Effective chlorine or effective oxygen retention rate (%)=R1×100/R2 (Expression 9)
Distilled water was added thereto to be about 100 ml, and about 1 g potassium iodide and about 5 ml of a 50% by mass acetic acid aqueous solution were further added and stirred for about 5 minutes. The liberated iodine was titrated with a 0.1 N sodium thiosulfate aqueous solution. After a yellow color of the solution became thin, approximately 1 ml of an aqueous solution of starch (10 g/L) was added as an indicator and the titration was continued until a blue color of the generated iodine-starch disappeared. The effective chlorine content (%) was determined from the titration amount of the sodium thiosulfate aqueous solution.
(§2) At this time, room temperature was 20° C. and relative humidity was 40%.
A short description of data set [2]: Stability test 2 (long-term storage test). The format is physicochemical. The conditions noted are these: in pasty detergent composition. On the procedure: In a stainless steel beaker were charged 5 g of distilled water and 3 g of potassium carbonate, and the potassium carbonate was dissolved. […] . The pasty detergent composition heated to 60° C. was accurately weighed within a range of from 2.5 to 3.5 g, a mass thereof was recorded up to 3 decimal places, and added so as to be superimposed on the solid bleaching agent-containing material or sodium dichloroisocyanurate, to thereby prepare detergent compositions containing the solid bleaching agent-containing material or the solid bleaching agent. […] One month later, the entire amount of the detergent composition containing the solid bleaching agent-containing material or the solid bleaching agent in the cup was dissolved in about 100 ml of distilled water, and the effective chlorine retention rate was evaluated from the effective chlorine content in the same manner as in the case of the stability test 1.
. […] The case where the effective chlorine retention rate was less than 5% was evaluated as failed which is denoted by B, because an effect of improving stability was hardly recognized. The case where the effective chlorine retention rate was 5% or more was evaluated as pass which is denoted by A, because an effect of improving stability was recognized. […]

Data set [3] in a line: Stability test 3 (abrasion test). The data set is classed as physicochemical. Conditions: uncoated; storage 40° C., 75% RH, 3 months. How it is done: In order to evaluate a stability in the case where a physical impact was applied to the solid bleaching agent-containing materials having a coating layer prepared in Examples 1, 25, 28, 31, 35, 36, 37, 38, and 39, an abrasion test was carried out by using a tablet abrasion tester (manufactured by Toyama Sangyo Co., Ltd.). This tablet abrasion tester is composed of a plastic drum container having an inner diameter of about 286 mm and a depth of about 38 mm, and an electric part rotating the drum container in a vertical direction. Inside the drum container, a partition plate is provided so that a test sample in the container is lifted up to about 157 mm in height and falls each time when the drum container makes one rotation. Such a tablet abrasion tester is readily available. […]
The case where the effective chlorine retention rate was less than 5% was evaluated as failed which is denoted by B because an effect of improving stability was hardly recognized. The case where the effective chlorine retention rate was 5% or more and less than 10% was evaluated as pass which is denoted by A, because an effect of improving stability was recognized. The case where the effective chlorine retention rate was 10% or more was evaluated as particularly excellent among passes, which is denoted by S. The results were as shown in Table 27.

Data set [4] is described as follows: Stability test 1 (storage test), effective oxygen retention rate. Conditions: uncoated solid bleaching agent (before coating).
Experimental: Even in the case of the oxygen solid bleaching agent, an effective oxygen content (in terms of O2) in the solid bleaching agent-containing material can be calculated by using an iodine titration method. That is, iodine which is liberated by the reaction of active oxygen and potassium iodide is titrated with a sodium thiosulfate solution, and the effective oxygen content is calculated by Expression 4. In order to accelerate the reaction between active oxygen and potassium iodide, a small amount of ammonium molybdate aqueous solution adjusted to 1% by mass may be added. […] Effective oxygen content (%)=a×f×0.08000/b (Expression 4)
as §1, §2
The conditions of data set [5]: per 100 g of water; cited from earlier work.
[6] abbreviates: uncoated solid bleaching agent (before coating).

Take `O=c1nc([O-])n(Cl)c(=O)n1Cl.[Na+]` [Sodium dichloroisocyanurate]: the “Stability test 1: before coating, effective chlorine retention rate (%)” value in data set [1] (setting [6]) worked out at 12%; in data set [1] (unprocessed solid bleaching agent mixed with detergent components and 3 ml tap water at 60° C., 18 hours at room temperature), 12%. Besides, in data set [2] (1 month, 40° C., 75% RH), the “Stability test 2: effective chlorine retention rate” value is given as 0%. For the same molecule, in data set [2] (uncoated, after 1 month), the “Stability test 2: before coating, effective chlorine retention rate (%)” value came to 0%. Also, the “Stability test 3: before coating, effective chlorine retention rate (%)” value in data set [3] is recorded as 0%.

Take `O=C([O-])[O-].O=C([O-])[O-].OO.OO.OO.[Na+].[Na+].[Na+].[Na+]` [Sodium percarbonate]: the “Stability test 1: before coating, effective oxygen retention rate (%)” value in data set [4] was 25%.

In the case of `O=c1n(Cl)c(=O)n(Cl)c(=O)n1Cl` [trichloroisocyanuric acid, Trichloroisocyanuric acid], in data set [5], the “solubility with respect to water of 100 g” value is given as 1.2 g. For the same molecule, the “Stability test 1: before coating, effective chlorine retention rate (%)” value in data set [1] (setting [6]) was 30%.
